# Earlier results in patent US10308937B2, “Combination long acting compositions and methods for Hepatitis C” (GlaxoSmithKline Intellectual Property (No. 2) Limited, priority 2014, dated 2019).
# Conditions: patients treated at currently recommended doses
structure (smiles),measurement,value
NC(=O)c1ncn([C@@H]2O[C@H](CO)[C@@H](O)[C@H]2O)n1 [Ribavirin],patients with significant hemolysis,10-20 % of patients
